Data from ChEMBL document CHEMBL1201862, “PubChem BioAssay data set” (2004).
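Each compound was tested at five concentrations against cells in 96-well plates for 48 hours. GI50 marks 50% less growth.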 Calls of active or inactive are those of the source. Rule as the data show it: active = GI50 up to about 1.1 µM and inactive = higher.

Columns and labels:
Test in all cases: NCI tumour cell line growth inhibition, 48 h
HCT-116 = tested on: HCT-116
HOP-92 = tested on: HOP-92
LOX IMVI = tested on: LOX IMVI
MOLT-4 = tested on: MOLT-4
ACHN = tested on: ACHN
HT-29 = tested on: HT-29
SK-MEL-28 = tested on: SK-MEL-28
A549 = tested on: A549
HL-60 = tested on: HL-60
U-251 = tested on: U-251
UACC-257 = tested on: UACC-257
RXF 393 = tested on: RXF 393
SN12C = tested on: SN12C
T47D = tested on: T47D
OVCAR-4 = tested on: OVCAR-4
HCC 2998 = tested on: HCC 2998
EKVX = tested on: EKVX
NCI-H522 = tested on: NCI-H522
Malme-3M = tested on: Malme-3M
SW-620 = tested on: SW-620

Row | Structure (SMILES) | GI50 (HCT-116) | GI50 (HOP-92) | GI50 (LOX IMVI) | GI50 (MOLT-4) | GI50 (ACHN) | GI50 (HT-29) | GI50 (SK-MEL-28) | GI50 (A549) | GI50 (HL-60) | GI50 (U-251) | GI50 (UACC-257) | GI50 (RXF 393) | GI50 (SN12C) | GI50 (T47D) | GI50 (OVCAR-4) | GI50 (HCC 2998) | GI50 (EKVX) | GI50 (NCI-H522) | GI50 (Malme-3M) | GI50 (SW-620)
1 | C[C@@H](c1ccccc1)N1CO[C@@]2(C#Cc3ccc4c(c3)OCO4)CCC[C@@H]12 | 12 µM (inactive) | 5.3 µM (inactive) | 12.7 µM (inactive) | 9.59 µM (inactive) | > 100 µM (inactive) | 16.6 µM (inactive) | 17.5 µM (inactive) | 14.8 µM (inactive) | 7.94 µM (inactive) | 13.6 µM (inactive) | 17.5 µM (inactive) | 11.6 µM (inactive) | 17.1 µM (inactive) | 16.4 µM (inactive) | 13.8 µM (inactive) | 17.9 µM (inactive) | 20.3 µM (inactive) | – | – | –
2 | COC(COC(=O)N1CCN(C=O)CC1)C1=C(N2CC2)C(=O)C(C)=C(N2CC2)C1=O (centres undefined) | 0.157 µM (active) | 0.198 µM (active) | 0.0664 µM (active) | 0.138 µM (active) | < 0.0193 µM (active) | 0.189 µM (active) | 1.27 µM (inactive) | 0.167 µM (active) | – | 0.219 µM (active) | 0.309 µM (active) | 0.228 µM (active) | 0.0336 µM (active) | 0.257 µM (active) | 0.585 µM (active) | 21.2 µM (inactive) | 5.08 µM (inactive) | 0.107 µM (active) | 0.336 µM (active) | 0.141 µM (active)
3 | O=C(/C=C/c1ccc2c(c1)OCO2)Cc1nc2ncccc2[nH]c1=O | > 100 µM (inactive) | > 100 µM (inactive) | 8.53 µM (inactive) | > 100 µM (inactive) | 32.2 µM (inactive) | > 100 µM (inactive) | > 100 µM (inactive) | > 100 µM (inactive) | > 100 µM (inactive) | 31.1 µM (inactive) | > 100 µM (inactive) | 49.4 µM (inactive) | > 100 µM (inactive) | 78.3 µM (inactive) | – | > 100 µM (inactive) | > 100 µM (inactive) | 60.7 µM (inactive) | > 100 µM (inactive) | > 100 µM (inactive)
4 | O=C(O)CCc1nc2cc3ccccc3cc2[nH]c1=O | > 100 µM (inactive) | > 100 µM (inactive) | > 100 µM (inactive) | > 100 µM (inactive) | > 100 µM (inactive) | > 100 µM (inactive) | > 100 µM (inactive) | > 100 µM (inactive) | – | > 100 µM (inactive) | > 100 µM (inactive) | > 100 µM (inactive) | > 100 µM (inactive) | > 100 µM (inactive) | > 100 µM (inactive) | > 100 µM (inactive) | > 100 µM (inactive) | > 100 µM (inactive) | – | > 100 µM (inactive)
5 | c1ccc(/C(=N\Nc2nc3ccccc3[nH]2)c2ccccn2)cc1 | 0.0362 µM (active) | 0.238 µM (active) | 0.516 µM (active) | 0.012 µM (active) | 0.268 µM (active) | 0.0101 µM (active) | 1.14 µM (inactive) | 0.596 µM (active) | – | 0.407 µM (active) | 0.298 µM (active) | 0.716 µM (active) | 0.415 µM (active) | 0.136 µM (active) | 0.208 µM (active) | 1.73 µM (inactive) | 0.47 µM (active) | 0.25 µM (active) | 0.687 µM (active) | 0.204 µM (active)
6 | COc1ccc(OC)c2sc(N3C(=O)/C(=C/c4ccc(Cl)cc4)N=C3c3ccccc3)nc12 | > 100 µM (inactive) | 49.5 µM (inactive) | 34.2 µM (inactive) | 24.7 µM (inactive) | > 100 µM (inactive) | > 100 µM (inactive) | > 100 µM (inactive) | > 100 µM (inactive) | 40.6 µM (inactive) | 40.7 µM (inactive) | 51.2 µM (inactive) | 78.5 µM (inactive) | > 100 µM (inactive) | 23.3 µM (inactive) | – | 80.2 µM (inactive) | > 100 µM (inactive) | 48.9 µM (inactive) | > 100 µM (inactive) | 67.9 µM (inactive)
7 | Cc1ccc(/N=N/C(=N\c2ccc(Cl)cc2)c2ccc(N(CCC#N)CCC#N)cc2)cc1 | 49 µM (inactive) | 46.3 µM (inactive) | – | > 100 µM (inactive) | 42 µM (inactive) | 71.4 µM (inactive) | 85.5 µM (inactive) | 29.6 µM (inactive) | – | 25.2 µM (inactive) | 12.4 µM (inactive) | 36.8 µM (inactive) | 40.9 µM (inactive) | 12.5 µM (inactive) | 51.4 µM (inactive) | 18.8 µM (inactive) | 22.9 µM (inactive) | 19.4 µM (inactive) | – | 58.9 µM (inactive)
8 | O=C(OCc1ccccc1CN1CCOCC1)c1ccc(Br)cc1 | 32.6 µM (inactive) | 93.1 µM (inactive) | 55 µM (inactive) | – | > 100 µM (inactive) | 20.5 µM (inactive) | 92 µM (inactive) | 45.6 µM (inactive) | – | 88.7 µM (inactive) | 43.2 µM (inactive) | > 100 µM (inactive) | 76 µM (inactive) | 43.5 µM (inactive) | 43.5 µM (inactive) | 46.5 µM (inactive) | 55.1 µM (inactive) | 28.7 µM (inactive) | 23.3 µM (inactive) | > 100 µM (inactive)
9 | CCOC(=O)c1ccc(C(=O)/C(C#N)=C2\CCCN2)[nH]1 | 82.4 µM (inactive) | > 100 µM (inactive) | > 100 µM (inactive) | 48.2 µM (inactive) | – | 72.3 µM (inactive) | > 100 µM (inactive) | 50.5 µM (inactive) | 66.5 µM (inactive) | > 100 µM (inactive) | > 100 µM (inactive) | 14.8 µM (inactive) | > 100 µM (inactive) | > 100 µM (inactive) | > 100 µM (inactive) | > 100 µM (inactive) | 11.7 µM (inactive) | – | > 100 µM (inactive) | 79.4 µM (inactive)
10 | Nc1ccc2c(c1)S(=O)(=O)c1cc(O)ccc1O2 | > 100 µM (inactive) | > 100 µM (inactive) | > 100 µM (inactive) | > 100 µM (inactive) | > 100 µM (inactive) | > 100 µM (inactive) | > 100 µM (inactive) | > 100 µM (inactive) | > 100 µM (inactive) | > 100 µM (inactive) | > 100 µM (inactive) | 48.3 µM (inactive) | > 100 µM (inactive) | > 100 µM (inactive) | > 100 µM (inactive) | > 100 µM (inactive) | > 100 µM (inactive) | > 100 µM (inactive) | – | > 100 µM (inactive)
11 | COc1ccc(-c2cc(-c3cc(F)c(Cl)cc3Cl)on2)cc1OC | 29.2 µM (inactive) | 30.1 µM (inactive) | 31.2 µM (inactive) | 5.82 µM (inactive) | 37.2 µM (inactive) | 22.5 µM (inactive) | 28.3 µM (inactive) | 30.8 µM (inactive) | 4.48 µM (inactive) | 25.9 µM (inactive) | 22.4 µM (inactive) | 8.07 µM (inactive) | 32.4 µM (inactive) | 15.6 µM (inactive) | 10.1 µM (inactive) | – | 75.5 µM (inactive) | 15.6 µM (inactive) | 45.3 µM (inactive) | 7.93 µM (inactive)
12 | C/C=C/CC(C(=O)OCC)(N(C)C(=O)OC(C)(C)C)S(=O)(=O)c1ccc(C)cc1 (centres undefined) | 70.6 µM (inactive) | > 100 µM (inactive) | > 100 µM (inactive) | > 100 µM (inactive) | > 100 µM (inactive) | 39.4 µM (inactive) | > 100 µM (inactive) | 85.9 µM (inactive) | 45.3 µM (inactive) | 81.5 µM (inactive) | > 100 µM (inactive) | > 100 µM (inactive) | > 100 µM (inactive) | > 100 µM (inactive) | > 100 µM (inactive) | – | > 100 µM (inactive) | 57.7 µM (inactive) | > 100 µM (inactive) | 56.5 µM (inactive)
13 | CC[C@@H](/C=C\CCC1(C[C@H](O)CCC=C(C)C)OCCO1)O[Si](C(C)C)(C(C)C)C(C)C | 17 µM (inactive) | 28.5 µM (inactive) | 20.4 µM (inactive) | 19.3 µM (inactive) | 18.3 µM (inactive) | 25 µM (inactive) | 26.7 µM (inactive) | 33.2 µM (inactive) | 16.7 µM (inactive) | 17.3 µM (inactive) | 22.5 µM (inactive) | 17.3 µM (inactive) | 18 µM (inactive) | 19.1 µM (inactive) | 50.8 µM (inactive) | 16.4 µM (inactive) | 28.8 µM (inactive) | 20.2 µM (inactive) | – | 26.4 µM (inactive)
14 | C(=C/c1ccc2nc(-c3ccc(/C=C/C=N/NC4=NCCCN4)cc3)cn2c1)/C=N/NC1=NCCCN1 | 6.81 µM (inactive) | > 100 µM (inactive) | – | 42.2 µM (inactive) | 46.7 µM (inactive) | – | > 100 µM (inactive) | 10.3 µM (inactive) | – | 16.1 µM (inactive) | 10.6 µM (inactive) | 23.8 µM (inactive) | > 100 µM (inactive) | 40.9 µM (inactive) | > 100 µM (inactive) | 45.4 µM (inactive) | 18.8 µM (inactive) | 9.64 µM (inactive) | – | –
15 | COc1cc(C2SCC(=O)N2c2ccc(NC(=O)c3ccc(N4C(=O)CSC4c4cc(OC)c(OC)c(OC)c4)cc3)cc2)cc(OC)c1OC (centres undefined) | 35.1 µM (inactive) | 16.4 µM (inactive) | 31.8 µM (inactive) | 34.8 µM (inactive) | 63.7 µM (inactive) | 93.1 µM (inactive) | 42.5 µM (inactive) | > 100 µM (inactive) | – | 49.3 µM (inactive) | 60.5 µM (inactive) | 58.6 µM (inactive) | > 100 µM (inactive) | 19.8 µM (inactive) | 33 µM (inactive) | > 100 µM (inactive) | 57 µM (inactive) | 40.2 µM (inactive) | 79.1 µM (inactive) | 36.9 µM (inactive)
